Tested on: angiotensin II receptor
Test: Angiotensin II receptor binding assay ([3H] angiotensin II displacement)
Settings: 60 minutes at 25° C., pH 7.2, test concentration not given
Method: The inventive compounds were tested to measure their angiotensin II receptor binding capacity as follows.
1. Angiotensin II receptor binding assay
In accordance with the procedure disclosed in Chiu, A. T. et al., Eur. J. Pharm., 157, 13 ([…])t a ligand marked with a radioistope was reacted with an angiotensin II receptor and the reactant was filtered with a glass fiber to remove unreacted ligand. After washing the filter, the amount of the remaining isotope was measured to determine the binding activity of the ligand, as described below in detail.
(i) Isolation of angiotensin II receptor
Sprague-Dawley rats and Wistar rats of 250 to 350 g (from The Korea Research Institute of Chemical Technology) were tested and the test procedures were carried out at 4° C., unless otherwise specified. Adrenal gland was separated from the Sprague-Dawley rats (liver, in the case of Wistar rats) into cortex and medulla. The separated adrenal cortex and medulla were washed with a sucrose buffer solution (0.2M sucrose, 1 mM EDTA, 10 mM Tris, pH 7.2) and homogenized in the same buffer solution by using a Teflon pestle and a Brinkmann homogenizer. The homogenates were centrifuged at 3,000× g for 10 minutes to remove precipitates and further centrifuged at 12,000× g for 13 minutes. The final supernatants were centrifuged at 102,000× g for 1 hour to obtain precipitates, which were washed with a Tris buffer solution (50 mM Tris, 5 mM MgCl2, pH 7.2) and re-centrifuged at 102,000× g for 1 hour. The resulting precipitates were immediately processed at the following step or stored at -70° C.
The precipitates were suspended in a Tris buffer solution. The amount of protein was determined by using a Bio-Rad DC protein analyzing kit and the protein concentration was adjusted to the amounts of: 0.2 to 0.3 mg/ml (Sprague-Dawley rat: adrenal cortex), 1.5 to 2.0 mg/ml (Sprague-Dawley rat: adrenal medulla), and 1.5 to 2.0 mg/ml (Wistar rat: liver). To the suspension, bovine serum albumin (BSA) was added to a concentration of 0.25 wt % and the resultant was immediately processed at the following step or stored at -70° C.
(ii) Measurement of angiotensin II receptor binding capacity
50 μl (based on ligand) of [^3 H] angiotensin II (NEN, NET-446) and 10 μl of each of the test compounds with various concentrations were added to the buffer solution (50 mM Tris (pH 7.2), 5 mM MgCl2, 0.25% BSA) to adjust the final volume to be 0.5 ml. Losartan (Dup 753), which is disclosed in EP No. 400,974 issued to Merck, was used as the control compound. 100 μl of the receptor suspension was added thereto and the resulting solution was reacted for 60 minutes while stirring in a water bath at 25° C. 3 ml of cold buffer solution for analysis was added to cease the reaction. The isotope which was bound to the receptor was isolated from the resultant by using Brandel Cell Harvester System with Whatman glass fiber GF/C. After washing the filter, the radioactivity of the filter was determined by using a liquid scintillation counter. Binding inhibition (%) of the test compound was calculated as follows:
Binding Inhibition (%)=[{(T-B)-(S-B)}/(T-B)]×100
wherein T is the radioactivity (cpm) of the reaction product untreated with the test compound, S is the radioactivity (cpm) of the reaction product treated with the test compound, and B is the radioactivity (cpm) of blank test.

Compound	Binding Inhibition (%)
CCCCc1nc(Cl)c(C(=O)c2ccc(C(OC)OC)c(C)[n+]2[O-])n1Cc1ccc(-c2ccccc2-c2nn[nH]n2)cc1 [Compound 39, {2-butyl-5-chloro-3-[(2'-(1H-tetrazol-5-yl)biphenyl-4-yl)methyl]-3H-imidazol-4-yl}[5-(dimethoxymethyl)-6-methyl-1-oxypyridin-2-yl]methanone]	87.5
CCCCc1nc(Cl)c(C(O)c2cccc(CN(CC)CC)[n+]2[O-])n1Cc1ccc(-c2ccccc2-c2nn[nH]n2)cc1 (stereo not drawn) [Compound 9, {2-butyl-5-chloro-3-[(2'-(1H-tetrazol-5-yl)biphenyl-4-yl)methyl]-3H-imidazol-4-yl}[6-(diethylamino)methyl-1-oxypyridin-2-yl]methanol]	30.5
CCCCc1nc(Cl)c(C(O)c2cccc(Br)[n+]2[O-])n1Cc1ccc(-c2ccccc2-c2nn[nH]n2)cc1 (stereo not drawn) [Compound 16]	62.9
CCCCc1nc(Cl)c(C(=O)c2cccc(CN(CC)CC)n2)n1Cc1ccc(-c2ccccc2-c2nnn[nH]2)cc1 [Compound 13, {2-butyl-5-chloro-3-[(2'-(1H-tetrazol-5-yl)biphenyl-4-yl)methyl]-3H-imidazol-4-yl}[6-((diethylamino)methyl)pyridin-2-yl]methanone]	90.5
CCCCc1nc(Cl)c(C(=O)c2ccc(CN(CC)CC)c[n+]2[O-])n1Cc1ccc(-c2ccccc2-c2nn[nH]n2)cc1 [Compound 31, {2-butyl-5-chloro-3-[(2'-(1H-tetrazol-5-yl)biphenyl-4-yl)methyl]-3H-imidazol-4-yl}[5-(diethylamino)methyl-1-oxypyridin-2-yl]methanone]	97.8
CCCCc1nc(Cl)c(C(=O)c2cccc(C=O)n2)n1Cc1ccc(-c2ccccc2-c2nnn[nH]2)cc1 [Compound 7, {2-butyl-5-chloro-3-[(2'-(1H-tetrazol-5-yl)biphenyl-4-yl)methyl]-3H-imidazol-4-yl}(6-formylpyridin-2-yl)methanone]	79.8
CCCCc1nc(Cl)c(C(=O)c2cccc(C(OC)OC)n2)n1Cc1ccc(-c2ccccc2-c2nnn[nH]2)cc1 [Compound 6, {2-butyl-5-chloro-3-[(2'-(1H-tetrazol-5-yl)biphenyl-4-yl)methyl]-3H-imidazol-4-yl}[6-(dimethoxymethyl)pyridin-2-yl]methanone]	91.2
CCCCc1nc(Cl)c(C(=O)c2ccc(C=O)c(C)[n+]2[O-])n1Cc1ccc(-c2ccccc2-c2nn[nH]n2)cc1 [Compound 40, {2-butyl-5-chloro-3-[(2'-(1H-tetrazol-5-yl)biphenyl-4-yl)methyl]-3H-imidazol-4-yl}(5-formyl-6-methyl-1-oxypyridin-2-yl)methanone]	90.4
CCCCc1nc(Cl)c(C(=O)c2cccc(C(=O)OC)[n+]2[O-])n1Cc1ccc(-c2ccccc2-c2nn[nH]n2)cc1 [Compound 21, {2-butyl-5-chloro-3-[(2'-(1H-tetrazol-5-yl)biphenyl-4-yl)methyl]-3H-imidazol-4-yl}(6-methoxycarbonyl-1-oxypyridin-2-yl)methanone]	86.5
CCCCc1nc(Cl)c(C(=O)c2ccc(C[N+]([O-])(CC)CC)c[n+]2[O-])n1Cc1ccc(-c2ccccc2-c2nn[nH]n2)cc1 [Compound 32, {2-butyl-5-chloro-3-[(2'-(1H-tetrazol-5-yl)biphenyl-4-yl)methyl]-3H-imidazol-4-yl}[5-((diethyl)(oxy)amino)methyl-1-oxypyridin-2-yl]methanone]	98.8
CCCCc1nc(Cl)c(C(=O)c2ccc(CCl)cn2)n1Cc1ccc(-c2ccccc2-c2nnn[nH]2)cc1 [Compound 29, {2-butyl-5-chloro-3-[(2'-(1H-tetrazol-5-yl)biphenyl-4-yl)methyl]-3H-imidazol-4-yl}[5-(chloromethyl)pyridin-2-yl]methanone]	83.6
CCCCc1nc(Cl)c(C(=O)c2cccc(C=O)[n+]2[O-])n1Cc1ccc(-c2ccccc2-c2nn[nH]n2)cc1 [Compound 2, {2-butyl-5-chloro-3-[(2'-(1H-tetrazol-5-yl)biphenyl-4-yl)methyl]-3H-imidazol-4-yl}(6-formyl-1-oxypyridin-2-yl)methanone]	95.0
CCCCc1nc(Cl)c(C(=O)c2cccc(C(=O)N(CC)CC)[n+]2[O-])n1Cc1ccc(-c2ccccc2-c2nn[nH]n2)cc1 [Compound 37, {2-butyl-5-chloro-3-[(2'-(1H-tetrazol-5-yl)biphenyl-4-yl)methyl]-3H-imidazol-4-yl}[6-(diethylamino)carbonyl-1-oxypyridin-2-yl]methanone]	92.8
CCCCc1nc(Cl)c(C(O)c2cccc(C(OC)OC)n2)n1Cc1ccc(-c2ccccc2-c2nnn[nH]2)cc1 (stereo not drawn) [Compound 4, {2-butyl-5-chloro-3-[(2'-(1H-tetrazol-5-yl)biphenyl-4-yl)methyl]-3H-imidazol-4-yl}[6-(dimethoxymethyl)pyridin-2-yl]methanol]	71.2
CCCCc1nc(Cl)c(C(=O)c2cccc(C(C)=O)[n+]2[O-])n1Cc1ccc(-c2ccccc2-c2nn[nH]n2)cc1 [Compound 20, {2-butyl-5-chloro-3-[(2'-(1H-tetrazol-5-yl)biphenyl-4-yl)methyl]-3H-imidazol-4-yl}(6-acetyl-1-oxypyridin-2-yl)methanone]	89.0
CCCCc1nc(Cl)c(C(O)c2cccc(C(=O)N(CC)CC)[n+]2[O-])n1Cc1ccc(-c2ccccc2-c2nn[nH]n2)cc1 (stereo not drawn) [Compound 36, {2-butyl-5-chloro-3-[(2'-(1H-tetrazol-5-yl)biphenyl-4-yl)methyl]-3H-imidazol-4-yl}[6-(diethylamino)carbonyl-1-oxypyridin-2-yl]methanol]	75.4
CCCCc1nc(Cl)c(C(=O)c2cccc(CO)[n+]2[O-])n1Cc1ccc(-c2ccccc2-c2nn[nH]n2)cc1 [Compound 3, {2-butyl-5-chloro-3-[(2'-(1H-tetrazol-5-yl)biphenyl-4-yl)methyl]-3H-imidazol-4-yl}(6-hydroxymethyl-1-oxypyridin-2-yl)methanone]	96.3
CCCCc1nc(Cl)c(C(=O)c2ccc(C(OC)OC)c[n+]2[O-])n1Cc1ccc(-c2ccccc2-c2nn[nH]n2)cc1 [Compound 22, {2-butyl-5-chloro-3-[(2'-(1H-tetrazol-5-yl)biphenyl-4-yl)methyl]-3H-imidazol-4-yl}[5-(dimethoxymethyl)-1-oxypyridin-2-yl]methanone]	90.1
